Among the data in US20230080054A1 (ILDONG PHARMACEUTICAL CO., LTD., priority 2021, published 2023) are inhibition values, retold here.

This assay concerns the target T1, human ANO6 (Homo sapiens, UniProt Q4KMQ2).
T1 construct: expressed in transfected cells
T1 sequence (Q4KMQ2 1-931 isoform Q4KMQ2-2): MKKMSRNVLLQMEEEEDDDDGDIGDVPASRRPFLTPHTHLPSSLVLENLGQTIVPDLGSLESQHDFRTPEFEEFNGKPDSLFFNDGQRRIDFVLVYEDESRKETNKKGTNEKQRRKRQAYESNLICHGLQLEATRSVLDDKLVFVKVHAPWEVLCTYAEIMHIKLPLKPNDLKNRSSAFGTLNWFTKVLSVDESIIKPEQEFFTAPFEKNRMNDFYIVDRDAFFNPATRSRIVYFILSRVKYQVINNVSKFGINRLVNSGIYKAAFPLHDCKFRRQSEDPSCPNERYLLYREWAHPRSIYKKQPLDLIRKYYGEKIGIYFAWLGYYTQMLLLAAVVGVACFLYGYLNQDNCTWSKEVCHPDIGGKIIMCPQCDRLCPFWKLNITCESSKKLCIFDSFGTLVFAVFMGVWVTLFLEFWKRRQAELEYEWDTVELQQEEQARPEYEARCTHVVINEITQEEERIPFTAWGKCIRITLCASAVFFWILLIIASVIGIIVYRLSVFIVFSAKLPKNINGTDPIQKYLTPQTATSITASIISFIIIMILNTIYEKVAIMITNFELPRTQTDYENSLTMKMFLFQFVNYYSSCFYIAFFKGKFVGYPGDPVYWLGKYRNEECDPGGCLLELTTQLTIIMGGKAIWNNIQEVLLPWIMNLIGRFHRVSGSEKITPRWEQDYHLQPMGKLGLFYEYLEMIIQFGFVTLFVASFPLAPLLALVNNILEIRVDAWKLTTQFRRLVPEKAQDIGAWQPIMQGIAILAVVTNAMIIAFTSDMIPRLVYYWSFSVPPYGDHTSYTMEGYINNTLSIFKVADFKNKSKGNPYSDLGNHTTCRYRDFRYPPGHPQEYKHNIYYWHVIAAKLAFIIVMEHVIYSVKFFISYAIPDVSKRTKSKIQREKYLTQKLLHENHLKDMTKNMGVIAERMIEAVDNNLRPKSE
As to the kind of experiment: YFP quenching assay (ANO6 ion channel activity). The conditions noted are these: test compound 1 μM, 10 μM ionomycin, read-out: Inhibition Level 1 μM. It counts as cell-based. From the text: Example 3: YFP Quenching Assay
1. Materials and Instruments
Ionomycin (Alomonelab cat. #I-700), FLUOstar Omega microplate reader (BMG Labtech, Ortenberg, Germany), and MARS Data Analysis Software (BMG Labtech)
Fisher rat thyroid (FRT) cells stably expressing human ANO6 (GenBank accession no. NP_001191732.1, provided by J. H. Nam, Dongguk University College of Medicine, Korea) and halide sensor mutant YFP-H148Q/I152L/F46L) were constructed and grown in Dulbecco's modified Eagle's medium Nutrient Mixture F-12 (DMEM/F-12) supplemented 10% FBS, 100 units/mL penicillin, 500 μg/mL hygromycin B and 100 μg/mL neomycin.
Fisher rat thyroid (FRT) cells stably expressing human ANO6 and halide sensor mutant YFP (H148Q/I152L/F46L) were seeded in black walled 96 well plates and incubated in a 37° C., 5% CO2 incubator to reach about 100% cell confluency. Then, each well of the 96 well plates were washed for several times with phosphate buffered saline (PBS), and 50 μL of PBS was added to each well. Test compounds (100× in DMSO) were added to each well to be 1% v/v DMSO. After incubation for 10 minutes in 40° C., the 96 well plates were transferred to a plate reader, and YFP fluorescence changed by SCN-introduced into cells through activated ANO6 were measured by the following steps.
(1) YFP fluorescence signals were recorded in every 0.4 seconds.
(2) Basal YFP fluorescence signals were recorded for 1 second.
(3) 140 mM SCN-(50 μL) containing 10 μM ionomycin was injected to each well, and YFP fluorescence signals were recorded.
The inhibitory activity (%) of each of the test compounds was obtained by the following steps.
(1) Background signals were subtracted from recording values, and the resulting values were converted to relative percentages. The values at 0 second were set to be 100%.
(2) Differences between the values at 3.6 seconds and those of at 7.6 seconds were calculated.
(3) In each row of 96 well plate, the inhibitory activity of each of the test compounds was calculated as percentages. The inhibitory activity of a negative control group to which neither compounds nor ionomycin were treated was set to be 100%, and the inhibitory activity of a positive control group to which ionomycin was treated and compounds were not treated was set to be 0%.
(4) The assay was performed in duplicate or triplicate, and the results were averaged.
For `Cc1ccc(CNC(=O)c2cccc(Nc3ccc(C4CCN(C(=O)OC(C)(C)C)CC4)nn3)c2)o1` [Compound 69, tert-butyl 4-{6-[(3-{[(5-methylfuran-2-yl)methyl]carbamoyl}phenyl)amino]pyridazin-3-yl}piperidine-1-carboxylate], the inhibition at 1 µM is below 30%. With `Cc1ccc(CNC(=O)c2cccc(Nc3ccc(C4CCN(C)CC4)nn3)c2)o1` [Compound 70, N-[(5-methylfuran-2-yl)methyl]-3-{[6-(1-methylpiperidin-4-yl)pyridazin-3-yl]amino}benzamide] the figure was below 30%; with `Cc1ccc(CNC(=O)c2cccc(Nc3ccc(C4CCNCC4)nn3)c2)o1` [Compound 71, N-[(5-methylfuran-2-yl)methyl]-3-{[6-(piperidin-4-yl)pyridazin-3-yl]amino}benzamide], below 30%.

For the compound `Cc1ccc(CNC(=O)c2cccc(Nc3ccc(-c4c(C)noc4C)nn3)c2)o1` [Compound 72, 3-{[6-(3,5-dimethyl-1,2-oxazol-4-yl)pyridazin-3-yl]amino}-N-[(5-methylfuran-2-yl)methyl]benzamide], the inhibition at 1 µM is below 30%. To `Cc1ccc(CNC(=O)c2cccc(Nc3ccc(CCc4ccccc4)nn3)c2)o1` [Compound 76, N-[(5-methylfuran-2-yl)methyl]-3-{[6-(2-phenylethyl)pyridazin-3-yl]amino}benzamide] belongs below 30%.

With `Cc1ccc(CNC(=O)c2cccc(Nc3ccc(CCc4ccc(F)cc4)nn3)c2)o1` [Compound 77, 3-({6-[2-(4-fluorophenyl)ethyl]pyridazin-3-yl}amino)-N-[(5-methylfuran-2-yl)methyl]benzamide], the inhibition at 1 µM is below 30%. Regarding `COc1ccc(CCNC(=O)c2cccc(Nc3ncc(-c4ccccc4)cn3)c2)cc1` [Compound 83, N-[2-(4-methoxyphenyl)ethyl]-3-[(5-phenylpyrimidin-2-yl)amino]benzamide], the inhibition at 1 µM lay within 30 to 60%. To `CCc1ccc(Nc2cccc(C(=O)NCc3ccc(C)o3)c2)nn1` [Compound 84, 3-[(6-ethylpyridazin-3-yl)amino]-N-[(5-methylfuran-2-yl)methyl]benzamide] belongs below 30%; to `Cc1ccc(CNC(=O)c2cccc(Nc3ccc(C(C)C)nn3)c2)o1` [Compound 85, N-[(5-methylfuran-2-yl)methyl]-3-{[6-(propan-2-yl)pyridazin-3-yl]amino}benzamide], 30 to 60%. With `Cc1ccc(CNC(=O)c2cccc(Nc3ccc(C4CCCO4)nn3)c2)o1` (stereo not drawn) [Compound 86, N-[(5-methylfuran-2-yl)methyl]-3-{[6-(oxolan-2-yl)pyridazin-3-yl]amino}benzamide] the figure was below 30%; with `Cc1ccc(CNC(=O)c2cccc(Nc3ccc(C4CCOC4)nn3)c2)o1` (stereo not drawn) [Compound 87, N-[(5-methylfuran-2-yl)methyl]-3-{[6-(oxolan-3-yl)pyridazin-3-yl]amino}benzamide], below 30%; with `Cc1ccc(CNC(=O)c2cccc(Nc3cccc(-c4ccccc4)c3)c2)o1` [Compound 88, 3-({[1,1′-biphenyl]-3-yl}amino)-N-[(5-methylfuran-2-yl)methyl]benzamide], below 30%. In the case of `Cc1ccc(CNC(=O)c2cccc(Nc3nccc(-c4ccccc4)n3)c2)o1` [Compound 89, N-[(5-methylfuran-2-yl)methyl]-3-[(4-phenylpyrimidin-2-yl)amino]benzamide], the inhibition at 1 µM was below 30%. Regarding `O=C(NCCN1CCCCC1)c1cccc(Nc2ncc(-c3ccccc3)cn2)c1` [Compound 93, 3-[(5-phenylpyrimidin-2-yl)amino]-N-[2-(piperidin-1-yl)ethyl]benzamide], the inhibition at 1 µM was below 30%.

For the compound `O=C(NCCN1CCCC1)c1cccc(Nc2ncc(-c3ccccc3)cn2)c1` [Compound 94, 3-[(5-phenylpyrimidin-2-yl)amino]-N-[2-(pyrrolidin-1-yl)ethyl]benzamide], the inhibition at 1 µM is below 30%. For the compound `CN(C)CCNC(=O)c1cccc(Nc2ncc(-c3ccccc3)cn2)c1` [Compound 95, N-[2-(dimethylamino)ethyl]-3-[(5-phenylpyrimidin-2-yl)amino]benzamide], the inhibition at 1 µM was below 30%. With `CCN(CC)CCNC(=O)c1cccc(Nc2ncc(-c3ccccc3)cn2)c1` [Compound 96, N-[2-(diethylamino)ethyl]-3-[(5-phenylpyrimidin-2-yl)amino]benzamide] the figure was below 30%.

For `CN1CCN(CCNC(=O)c2cccc(Nc3ncc(-c4ccccc4)cn3)c2)CC1` [Compound 97, N-[2-(4-methylpiperazin-1-yl)ethyl]-3-[(5-phenylpyrimidin-2-yl)amino]benzamide], the inhibition at 1 µM was below 30%. With `Cc1ccc(CNC(=O)c2cccc(Nc3ncc(-c4cccc(C(F)(F)F)c4)cn3)c2)o1` [Compound 99, N-[(5-methylfuran-2-yl)methyl]-3-({5-[3-(trifluoromethyl)phenyl]pyrimidin-2-yl}amino)benzamide] the figure was 30 to 60%. `Cc1ccc(CNC(=O)c2cccc(Nc3ncc(-c4ccc(C(F)(F)F)cc4)cn3)c2)o1` [Compound 100, N-[(5-methylfuran-2-yl)methyl]-3-({5-[4-(trifluoromethyl)phenyl]pyrimidin-2-yl}amino)benzamide]: the inhibition at 1 µM is below 30%. To `CCOC(=O)c1cccc(-c2cnc(Nc3cccc(C(=O)NCc4ccc(C)o4)c3)nc2)c1` [Compound 101, ethyl 3-{2-[(3-{[(5-methylfuran-2-yl)methyl]carbamoyl}phenyl)amino]pyrimidin-5-yl}benzoate] belongs below 30%; to `CCOC(=O)c1ccc(-c2cnc(Nc3cccc(C(=O)NCc4ccc(C)o4)c3)nc2)cc1` [Compound 102, ethyl 4-{2-[(3-{[(5-methylfuran-2-yl)methyl]carbamoyl}phenyl)amino]pyrimidin-5-yl}benzoate], below 30%. To `Cc1ccc(CNC(=O)c2cccc(Nc3ncc(-c4ccc5c(c4)OCO5)cn3)c2)o1` [Compound 103, 3-{[5-(2H-1,3-benzodioxol-5-yl)pyrimidin-2-yl]amino}-N-[(5-methylfuran-2-yl)methyl]benzamide] belongs below 30%; to `Cc1ccc(CNC(=O)c2cccc(Nc3ncc(-c4cnc5ccccc5c4)cn3)c2)o1` [Compound 104, N-[(5-methylfuran-2-yl)methyl]-3-{[5-(quinolin-3-yl)pyrimidin-2-yl]amino}benzamide], below 30%; to `O=C(NCCc1ccc2c(c1)OCO2)c1cccc(Nc2ncc(-c3ccccc3)cn2)c1` [Compound 106, N-[2-(2H-1,3-benzodioxol-5-yl)ethyl]-3-[(5-phenylpyrimidin-2-yl)amino]benzamide], 30 to 60%. With `Cc1ccc(CNC(=O)c2cccc(Nc3ccc(C#N)nn3)c2)o1` [Compound 107, 3-[(6-cyanopyridazin-3-yl)amino]-N-[(5-methylfuran-2-yl)methyl]benzamide] the figure was below 30%. Consider `Cc1ccc(CNC(=O)c2cccc(Nc3ncc(-c4cccc(C(=O)O)c4)cn3)c2)o1` [Compound 108, 3-{2-[(3-{[(5-methylfuran-2-yl)methyl]carbamoyl}phenyl)amino]pyrimidin-5-yl}benzoic acid], for which the inhibition at 1 µM was below 30%.
